Assay results: the supplement of paper PMC6045584
± gives the standard deviation of the averaged measurements.

What was measured:
ERLOTINIB = compound: C#Cc1cccc(Nc2ncnc3cc(OCCOC)c(OCCOC)cc23)c1 [ERLOTINIB]; assay: surviving fraction relative to DMSO-only wells; higher = less growth inhibition; conditions: exposure time: 5 days
Summary of the method: (§1)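 Each tumour cell line was screened three times, and only lines with replicate Pearson r >0.7 and median Z' >0.3 were kept. Cells in log phase were seeded at 250–500 per well in 384-well plates, left 24 hours, then exposed continuously for five days to inhibitors at 0.5, 1, 5, 10, 50, 100, 500 and 1000 nM. Viability was read as CellTiter-Glo luminescence, with surviving fraction normalised to the median of DMSO-only wells.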

ETOPOSIDE = compound: COc1cc([C@@H]2c3cc4c(cc3[C@@H](O[C@@H]3O[C@@H]5CO[C@@H](C)O[C@H]5[C@H](O)[C@H]3O)[C@H]3COC(=O)[C@H]23)OCO4)cc(OC)c1O [ETOPOSIDE]; assay: as above; conditions: exposure time: 5 days
Summary of the method: as §1

Test System | surviving fraction (ERLOTINIB; 0.5 nM) | surviving fraction (ERLOTINIB; 1 nM) | surviving fraction (ERLOTINIB; 5 nM) | surviving fraction (ERLOTINIB; 10 nM) | surviving fraction (ERLOTINIB; 50 nM) | surviving fraction (ERLOTINIB; 100 nM) | surviving fraction (ERLOTINIB; 500 nM) | surviving fraction (ERLOTINIB; 1000 nM) | surviving fraction (ETOPOSIDE; 0.5 nM) | surviving fraction (ETOPOSIDE; 1 nM) | surviving fraction (ETOPOSIDE; 5 nM) | surviving fraction (ETOPOSIDE; 10 nM) | surviving fraction (ETOPOSIDE; 50 nM) | surviving fraction (ETOPOSIDE; 100 nM) | surviving fraction (ETOPOSIDE; 500 nM) | surviving fraction (ETOPOSIDE; 1000 nM)
HCC1954 BREAST | 1.05 ± 0.059 | 1.14 ± 0.082 | 1.35 ± 0.075 | 1.35 ± 0.23 | 0.782 ± 0.23 | 0.708 ± 0.23 | 0.527 ± 0.066 | 0.493 ± 0.092 | 0.889 ± 0.22 | 0.872 ± 0.095 | 1.1 ± 0.064 | 1.05 ± 0.074 | 0.953 ± 0.054 | 0.654 ± 0.014 | 0.512 ± 0.13 | 0.34 ± 0.0014
HCT15 LARGE INTESTINE | 1.06 ± 0.12 | 1 ± 0.15 | 0.979 ± 0.17 | 0.977 ± 0.078 | 1.1 ± 0.038 | 1.11 ± 0.039 | 1.1 ± 0.044 |  | 1.01 ± 0.037 | 0.981 ± 0.03 | 1.01 ± 0.041 | 1.04 ± 0.046 | 1.007 ± 0.0047 | 1.05 ± 0.033 | 0.704 ± 0.095 | 0.328 ± 0.037
HELA CERVIX | 1.06 ± 0.057 | 1.08 ± 0.045 | 1.04 ± 0.089 | 1.05 ± 0.04 | 1.17 ± 0.054 | 1.18 ± 0.028 | 1.25 ± 0.035 | 1.15 ± 0.021 | 1.1 ± 0.033 | 1.1 ± 0.023 | 1.04 ± 0.031 | 1.04 ± 0.015 | 1.14 ± 0.063 | 1.18 ± 0.059 | 0.301 ± 0.044 | 0.182 ± 0.0037
HMLE3 BREAST | 1.07 ± 0.021 |  | 1.1 ± 0.038 | 1.07 ± 0.026 |  | 1.17 ± 0.077 | 0.976 ± 0.15 | 0.916 ± 0.013 | 1.02 ± 0.052 | 0.974 ± 0.06 | 1.01 ± 0.027 | 0.9737 ± 0.0075 | 0.826 ± 0.018 | 0.589 ± 0.06 | 0.279 ± 0.045 | 0.27 ± 0.017
HMT3552 BREAST | 1.03 ± 0.024 | 1.04 ± 0.036 | 0.994 ± 0.029 | 1.03 ± 0.02 | 1.02 ± 0.064 | 0.957 ± 0.034 | 0.85 ± 0.08 | 0.808 ± 0.053 | 1.05 | 1.05 | 1.04 | 0.998 | 1.14 | 1.03 | 0.347 | 0.22
HOS BONE | 1.038 ± 0.0011 |  | 1.03 ± 0.028 | 1.03 ± 0.022 |  | 1.05 ± 0.0058 | 1.03 ± 0.038 | 0.98 ± 0.046 | 1.01 ± 0.011 | 1.02 ± 0.033 | 1.02 ± 0.018 | 1.019 ± 0.0095 | 0.978 ± 0.01 | 0.707 ± 0.033 | 0.0687 ± 0.0011 | 0.067 ± 0.0056
HOSMNG BONE |  | 1 ± 0.041 | 0.915 ± 0.044 | 0.947 ± 0.078 | 0.963 ± 0.1 |  | 1.1 ± 0.064 | 0.957 ± 0.044 | 0.958 ± 0.1 | 0.984 ± 0.056 | 0.976 ± 0.024 | 1.01 ± 0.023 | 1.02 ± 0.021 | 1.04 ± 0.018 | 0.956 ± 0.079 | 0.78 ± 0.021
HS57T BREAST | 1.03 ± 0.086 | 1.02 ± 0.071 | 1.06 ± 0.046 | 1.1 ± 0.052 |  | 1.04 ± 0.074 | 0.999 ± 0.046 | 0.971 ± 0.074 | 1.02 ± 0.016 | 0.967 ± 0.049 | 1.01 ± 0.02 | 1.06 ± 0.069 | 1.09 ± 0.055 | 0.909 ± 0.06 | 0.409 ± 0.048 | 0.288 ± 0.017
HS578T BREAST | 1.18 ± 0.052 | 1.4 ± 0.32 | 1.21 ± 0.22 | 1.23 ± 0.063 | 1.33 ± 0.21 | 1.32 ± 0.16 | 1.28 ± 0.23 | 1.18 ± 0.12 | 0.878 ± 0.18 | 0.849 ± 0.12 | 0.831 ± 0.2 | 0.789 ± 0.079 | 0.95 ± 0.11 | 0.751 ± 0.064 | 0.59 ± 0.064 | 0.372 ± 0.029
HSSYII SYNOVIAL | 0.966 ± 0.066 | 1.03 ± 0.036 | 1.02 ± 0.058 | 1.06 ± 0.031 | 1.03 ± 0.062 | 1.01 ± 0.049 | 1.02 ± 0.063 | 1 ± 0.076 | 0.995 ± 0.045 | 0.972 ± 0.068 | 0.968 ± 0.049 | 0.971 ± 0.018 | 0.7943 ± 0.0045 | 0.59 ± 0.026 | 0.116 ± 0.0062 | 0.0892 ± 0.0041
HT1080 SOFT TISSUE |  | 1.05 ± 0.032 | 1.06 ± 0.027 | 1.05 ± 0.026 | 1.024 ± 0.004 | 1.02 ± 0.022 | 1.07 ± 0.066 | 1.03 ± 0.077 | 1.02 ± 0.028 | 0.995 ± 0.026 | 0.951 ± 0.02 | 0.94 ± 0.015 | 0.616 ± 0.046 | 0.467 ± 0.0051 | 0.217 ± 0.021 | 0.222 ± 0.0056
HU09 BONE | 1.08 ± 0.11 | 0.986 ± 0.073 | 1.12 ± 0.073 | 1.04 ± 0.1 | 1.11 ± 0.029 | 1.1 ± 0.024 | 1.04 ± 0.061 | 0.965 ± 0.062 | 0.957 ± 0.075 | 0.977 ± 0.09 | 1.12 ± 0.099 | 1 ± 0.023 | 0.972 ± 0.12 | 0.803 ± 0.087 | 0.146 ± 0.0087 | 0.0523 ± 0.0064
JIMT1 BREAST | 1 ± 0.012 | 0.994 ± 0.044 |  | 0.9948 ± 0.0084 | 1 ± 0.015 | 1.02 ± 0.076 | 0.809 ± 0.025 | 0.731 ± 0.031 | 0.988 ± 0.02 | 1.01 ± 0.026 | 1.03 ± 0.032 | 1.03 ± 0.015 | 1.06 ± 0.022 | 1.07 ± 0.026 | 0.893 ± 0.028 | 0.694 ± 0.028
JURKAT HAEMATOPOIETIC AND LYMPHOID TISSUE | 1.05 ± 0.025 |  | 1.05 ± 0.037 | 1.03 ± 0.041 | 0.989 ± 0.035 | 1.01 ± 0.015 | 0.988 ± 0.015 | 1.01 ± 0.038 | 1.084 ± 0.0084 | 1.1 ± 0.023 | 1.052 ± 0.0055 | 1.011 ± 0.0045 | 0.633 ± 0.043 | 0.261 ± 0.01 | 0.064 ± 0.005 | 0.0413 ± 0.00058
KPD BONE | 1.07 ± 0.11 | 1.03 ± 0.042 | 1.06 ± 0.076 | 1.07 ± 0.075 | 1.18 ± 0.035 | 1.11 ± 0.035 | 1.07 ± 0.11 | 1.05 ± 0.096 | 0.955 ± 0.016 | 0.894 ± 0.047 | 1.02 ± 0.026 | 1.02 ± 0.1 | 0.944 ± 0.023 | 0.811 ± 0.047 | 0.393 ± 0.0087 | 0.292 ± 0.014
LM7 BONE | 1.09 ± 0.1 | 0.989 ± 0.043 | 1.2 ± 0.043 | 1.06 ± 0.051 | 1.23 ± 0.061 | 1.15 ± 0.098 | 0.932 ± 0.058 |  | 0.9 ± 0.14 | 0.941 ± 0.072 | 1.01 ± 0.068 | 1.01 ± 0.13 | 0.994 ± 0.12 | 0.953 ± 0.075 | 0.677 ± 0.034 | 0.449 ± 0.045
MCF7 BREAST | 0.942 ± 0.022 | 0.9629 ± 0.007 | 0.993 ± 0.044 | 0.953 ± 0.053 | 1.084 ± 0.0061 | 1.03 ± 0.018 | 1.03 ± 0.042 |  | 0.9 ± 0.049 | 0.88 ± 0.045 | 0.867 ± 0.079 | 0.9 ± 0.037 | 0.951 ± 0.07 | 0.935 ± 0.014 | 0.702 ± 0.051 | 0.644 ± 0.041
MDAMB134 BREAST |  | 0.92 ± 0.024 | 0.899 ± 0.018 | 0.91 ± 0.059 | 1.13 ± 0.033 | 1.15 ± 0.17 |  | 1.08 ± 0.088 | 1.08 ± 0.13 | 1.187 ± 0.0057 | 0.994 ± 0.13 | 0.992 ± 0.099 | 1.03 ± 0.19 | 1.12 ± 0.17 | 1.11 ± 0.065 | 1.02 ± 0.055
MDAMB157 BREAST | 0.981 ± 0.071 | 0.985 ± 0.11 |  | 0.998 ± 0.056 | 0.97 ± 0.091 | 1.04 ± 0.018 | 0.999 ± 0.073 |  | 0.927 ± 0.12 | 0.938 ± 0.044 | 1.07 ± 0.044 | 0.99 ± 0.055 | 0.895 ± 0.038 | 0.874 ± 0.1 | 0.201 ± 0.046 | 0.221 ± 0.053
MDAMB231 BREAST | 1.01 ± 0.028 | 0.997 ± 0.013 | 1.02 ± 0.019 | 1.02 ± 0.011 | 1.04 ± 0.019 | 1.06 ± 0.027 | 1.06 ± 0.028 | 1.03 ± 0.029 | 0.987 ± 0.022 | 1.03 ± 0.056 | 1.02 ± 0.018 | 0.995 ± 0.018 | 1.04 ± 0.029 | 1.03 ± 0.036 | 0.633 ± 0.017 | 0.454 ± 0.043
MDAMB361 BREAST | 0.873 ± 0.095 | 0.849 ± 0.05 | 0.83 ± 0.037 | 0.869 ± 0.011 |  |  | 0.913 ± 0.091 | 0.827 ± 0.033 | 0.921 ± 0.048 | 0.848 ± 0.056 | 0.884 ± 0.055 | 0.946 ± 0.068 | 0.958 ± 0.067 | 0.963 ± 0.091 | 0.954 ± 0.051 | 0.972 ± 0.049
MDAMB436 BREAST | 0.987 ± 0.03 | 1.08 ± 0.073 | 1.07 ± 0.091 | 1.05 ± 0.15 | 1.05 ± 0.14 | 0.941 ± 0.049 | 0.932 ± 0.066 | 0.811 ± 0.045 | 0.957 ± 0.038 | 1 ± 0.053 | 1.05 ± 0.079 | 0.943 ± 0.022 | 0.873 ± 0.11 | 0.822 ± 0.045 | 0.499 ± 0.02 | 0.416 ± 0.059
